pIC50: −log10 of the molar value. Values joined by “and” are separate entries in the source; they are usually repeats but may differ in a detail not shown here. Equal values may be shown once. Read-outs that look alike come from different tables or passages of the source. Blank lines part the entries; values can stand above or below the compound they belong to. Where a SMILES comes first, the peptide text is derived from it. The star is where a group is joined. Cbz = O=C(OCc1ccccc1)*
What was measured:
[1] = system: C6 plasma membrane associated metalloendoprotease; test: Enzyme assay: cbz-FAF[125I]Y-NH2 degradation by C6 plasma membranes with protease blockers; type: biochemical, rat
Protocol: For most experiments, 70-80% confluent cell layers (1 cm^2 wells, 100 μl MEMα) or 2-5 μg C6 plasma membrane (100 μl MEMα) were used. […] If indicated, cell layers or plasma membrane suspensions were preincubated for 30 min with protease blockers or peptides. NEM or iodacetamide incubations of plasma membranes were performed at pH 8.5. The incubation was stopped by loading a 10 μl aliquot of the incubation medium on a thin layer chromatography plate (10 cm height, Kieselgel 60 F254, MERCK, Germany) and air dried. […] Plates were then air dried and exposed on Kodak X-OMAT films (NY, USA) with an intensifying screen. To identify the degradation products on thin-layer chromatography, we run reference peptides under the same conditions.
For the quantification of the activity, the reaction was stopped by addition of an equal volume of chloroform. […] Activity is expressed as % radioactivity contained in the aqueous phase. 100% is the sum of the radioactivity of both phases.

[2] = system: cbz-FAF[^125I]Y-NH2; test: Degradation of cbz-FAF[125I]Y-NH2 by defined proteases and C6 cell fractions; type: biochemical
Protocol: Preparation of plasma membrane from C6 cells was performed according to (Raper and Kapfhammer, 1990, Neuron 2:21-29) with some modifications. Briefly, C6 cells were cultured in 30 culture dishes (13.5 cm diameter). At confluency, the culture medium was removed and the cell layers were frozen to −20° C. All subsequent manipulations were performed at 4° C.: cell debris were collected using a rubber policeman in 100 ml CMF-Hank's and further homogenized by 10 strokes in a Dounce homogenizer with teflon plunger. A small aliquot of this suspension was stored at −20° C. and used later (homogenate-fraction). The nuclear pellet was obtained by low speed centrifugation (10 min, 1000×g) in a Sorvall S22 rotor and stored at […] A crude vesicular fraction was obtained by centrifugating the nuclear supernatant in a Sorvall S22 rotor (20,000×g, 30 min), and was resuspended in 10 ml CMF-Hank's. After adding 20 ml 2.25 M sucrose in CMF-Hank's, this suspension was loaded on 4×8 ml 2.25 M sucrose in CMF-Hank's and centrifuged at 80,000×g for 1 h in a Beckman SW28 motor. Plasma membranes were harvested at the top and the mitochondrial fraction at the interphase of this 2 step gradient. Both fractions were diluted 10× with CMF-Hank's and pelleted (Beckman TI80, 22,000×g, 30 min). The two pellets were resuspended in 2 ml MEMα (1.3 mg protein/ml) supplemented with 0.5 mM DTT and stored at −20° C.
For most experiments, 70-80% confluent cell layers (1 cm^2 wells, 100 μl MEMα) or 2-5 μg C6 plasma membrane (100 μl MEMα) were used. Reactions were started by the addition of 10 μl cbz-FAF[^125I]Y-NH2 (SEQ ID NO:2) (2 μM in MEMα, 10,000-30,000 cpm). If indicated, cell layers or plasma membrane suspensions were preincubated for 30 min with protease blockers or peptides. NEM or iodacetamide incubations of plasma membranes were performed at pH 8.5. The incubation was stopped by loading a 10 μl aliquot of the incubation medium on a thin layer chromatography plate (10 cm height, Kieselgel 60 F254, MERCK, Germany) and air dried. Thin layer chromatography was routinely run with CHCl3:CH3OH:CH3COOH 32% (5:3:1). Plates were then air dried and exposed on Kodak X-OMAT films (NY, USA) with an intensifying screen. To identify the degradation products on thin-layer chromatography, we run reference peptides under the same conditions.
For the quantification of the activity, the reaction was stopped by addition of an equal volume of chloroform. This simple procedure allowed us to separate an organic phase containing the unreacted substrate cbz-FAF[^125I]Y-NH2 and an aqueous phase containing the charged degradation products (see also FIG. 30). Activity is expressed as % radioactivity contained in the aqueous phase. 100% is the sum of the radioactivity of both phases.

[3] = system: C6 glioblastoma cells; test: cells; type: cell-based, rat; settings: for pIC50: 2 h
Protocol: Rat C6 glioblastoma cells (Benda et al., 1968, Science 161:370-371) were cultured in Dulbecco's modified Eagle's medium (DMEM) supplemented with 10% fetal calf serum (FCS), usually to maximally 70-80% confluency (Paganetti et al., 1988, J. Cell Biol. 107:2281-2291). All cell culture media were routinely supplemented with penicillin and streptomycin. Cells were harvested by a short trypsin treatment (0.1% in Ca^2+/Mg^2+-free [CMF] PBS/EDTA solution for 90 seconds) followed by addition of DMEM/10% FCS and centrifugation (600×g, 6 min). The cell pellet was rinsed with 5 ml DMEM/10% FCS and centrifuged. For cell spreading assays, cells were resuspended at 10^6/ml in defined serum-free medium (MEMα) supplemented with 0.2 μg/ml insulin, 0.5 μg/ml transferrin and 0.12 μg/ml bovine serum albumin (BSA). Protease blockers or peptides were added directly to the cell suspension from 10×solutions 10 min before plating.
Spinal cord myelin from young adult Lewis rats was purified on a discontinuous sucrose gradient (Colman et al., 1982, J. Cell Biol. 95:598-608; Schwab and Caroni, 1988, J. Neurosci. 8:2381-2393) and stored in 100 mM sucrose, 25 mM TRIS/HCl pH 7.4 at −80° C. up to 6 months. The myelin suspension ([…]) was incubated for 30 min on poly-D-lysine-coated wells (PLYS-wells). Unbound myelin membranes were removed by rinsing twice with CMF-Hank's and once with MEMα. Myelin-coated wells were used immediately for the spreading assay by adding 9'000 C6 cells per cm^2. Experiments were scored as described (Paganetti et al., 1988, J. Cell Biol. 107:2281-2291).

[4] = system: C6 cells; test: C6 cell spreading on CNS myelin or PLYS with protease inhibitors; type: cell-based, rat; settings: for Inhibition on CNS (%): C6 cells, spreading on PLYS minus spreading on CNS myelin; for Effect on C6 cell spreading on CNS myelin, in words: Section 9
Protocol: Rat C6, mouse NIH 3T3 and B16 cells were cultured in Dulbecco's modified Eagle's medium (DMEM) supplemented with 10% fetal calf serum (FCS), usually to maximally 70-80% confluency. Cells were harvested with a short trypsin treatment (0.1% in Ca^2+/Mg^2+-free Hank's medium for 90 seconds) stopped by addition of FCS in excess, collected by centrifugation. Cells were resuspended in either DMEM/FCS or defined serum-free medium (MEM) and used for experiments. Dissociated rat CNS glial cells were prepared starting from optic nerves of 6-7 days old Lewis rats as described in Section 6.1.1, supra and plated into poly-D-lysine (PLYS) coated wells (100 mm^2, 100 μl medium) at a density of 20,000 cells per well. The culture medium was an enriched L15 medium with 5% rat serum, penicillin and streptomycin. C6, 3T3 and B16 cells were added to 2 day old cultures at a concentration of 30,000 cells per well, incubated for two hours and fixed with warm 4% formalin in phosphate buffer. Inhibitory oligodendrocytes were identified by double labelling using the specific antibodies O1 and O4 (see Section 6.1.3, supra).
Myelin from rat spinal cord (CNS) or sciatic nerve (PNS) purified on a discontinuous sucrose gradient as described in Section 6.1.5., was dried overnight onto PLYS coated wells (20 μg protein/well of 100 mm^2 surface). Unbound membranes were removed by three washes with Ca^2+/Mg^2+-free Hank's solution. Myelin coated wells were immediately used in substrate testing assays by the addition of 9,000 cells (C6, 3T3, or B16) per cm^2. Alternatively, we used extracted CNS myelin protein, or SDS-PAGE purified 35 and 250 kD inhibitory proteins reconstituted in liposomes (see Section 7.1.5, supra). Experiments were scored at different time points using a phase contrast microscope equipped with a photocamera. Quantifications were done using a surface integration program; three arbitrary fields were photographed for each well at a magnitude of 80×, at least 25 cells per picture were measured. Each point represents the mean of at least 3 wells±SEM. Results are expressed as μ^2 of projected cell surface, or as degree, which was calculated by subtracting from the projected surface value of a spreading cell, the surface value of a completely spheric cell.

[5] = C6 cell spreading on CNS myelin, read-out: IC50 on CNS myelin

pIC50 [3]: 3.52
Compound: O=C(CNC(=O)OCc1ccccc1)N[C@@H](Cc1ccccc1)C(=O)N[C@@H](Cc1ccccc1)C(=O)O [cbz-GFF] (Cbz-Gly-Phe-Phe-OH; C-terminus assumed)

Effect on cbz-FAF[^125I]Y-NH2 degradation by C6 plasma membranes, in words [1]: had no effect
Compound: CC(C)C[C@H](NP(=O)(O)O[C@@H]1O[C@@H](C)[C@H](O)[C@@H](O)[C@H]1O)C(=O)N[C@@H](Cc1c[nH]c2ccccc12)C(=O)O [phosphoramidon]
Inhibition on CNS (%) [4]: 9%
Effect on C6 cell spreading on CNS myelin, in words [4]: did not impair C6 cell spreading

pIC50 [3]: 5.30
Compound: COC(=O)[C@H](Cc1ccccc1)NC(=O)[C@H](Cc1ccccc1)NC(=O)CNC(=O)OCc1ccccc1 [cbz-GFF-OCH3] (Cbz-Gly-Phe-Phe-OMe)
Effect on C6 cell spreading on CNS myelin, in words ([3]; Section 11): strong inhibition of cell spreading

pIC50 [3]: 5.30
Compound: CC(C)C[C@H](NC(=O)CNC(=O)OCc1ccccc1)C(=O)N[C@@H](Cc1ccccc1)C(N)=O [cbz-GLF-NH2] (Cbz-Gly-Leu-Phe-NH2)

pIC50 [3]: 5.52
Compound: C[C@H](NC(=O)[C@H](Cc1ccccc1)NC(=O)OCc1ccccc1)C(=O)N[C@@H](Cc1ccccc1)C(=O)N[C@@H](Cc1ccc(O)cc1)C(N)=O [cbz-FAFY-NH2, carbobenzoxy-Phe-Ala-Phe-Tyr-amide] (Cbz-FAFY-NH2)
Effect on C6 cell spreading on CNS myelin, in words ([3]; Section 11): clearly impaired C6 cell spreading on CNS myelin
Effect on C6 cell spreading on PLYS-coated wells, in words ([3]; Section 11): had no effect on PLYS-coated wells

Effect on cbz-FAF[^125I]Y-NH2 degradation by C6 plasma membranes, in words [1]: had no effect
Compound: Carboxymethyl-phe-leu [cm-phe-leu]
Inhibition on CNS (%) [4]: 3%
Effect on C6 cell spreading on CNS myelin, in words [4]: did not inhibit C6 cell spreading

Further lines, the compound ahead of its results:

Compound: CCN1C(=O)C=CC1=O [N-ethylmaleimide]
Effect on cbz-FAF[^125I]Y-NH2 degradation by C6 plasma membranes, in words [1]: had no effect

Compound: cathepsin D: acidic protease
Amount necessary to degrade 50% of substrate in 30 min ([2]; 37° C., pH 7.4): >100 µg
Amount giving half maximal activity on cbz-FAFY-NH2 ([2]; pH 4.0): 5 ng
Amount necessary to degrade 50% of substrate in 30 min ([2]; pH 4.0): 0.005 µg

Compound: C[C@H](NC(=O)[C@@H](N)Cc1ccccc1)C(=O)N[C@@H](Cc1ccccc1)C(=O)N[C@@H](Cc1ccc(O)cc1)C(N)=O [FAFY-NH2] (H-FAFY-NH2; N-terminus assumed)
pIC50 [3, 5]: 3.52

Compound: O=S(=O)(F)Cc1ccccc1 [PMSF, Phenyl methyl sulfonyl fluoride]
Inhibition on CNS (%) [4]: 6%
Effect on cbz-FAF[^125I]Y-NH2 degradation by C6 plasma membranes, in words [1]: had no effect

Compound: C[C@H](NC(=O)[C@H](Cc1ccccc1)NC(=O)OCc1ccccc1)C(N)=O [cbz-FA-NH2]
pIC50 [3, 5]: 3.22

Compound: NC(=O)CI [iodacetamide]
Effect on cbz-FAF[^125I]Y-NH2 degradation by C6 plasma membranes, in words [1]: had no effect

Compound: C[C@H](NC(=O)OCc1ccccc1)C(=O)N[C@@H](Cc1ccccc1)C(=O)N[C@@H](Cc1ccc(O)cc1)C(N)=O [cbz-AFY-NH2]
Effect on C6 cell spreading on CNS myelin, in words ([3]; Section 11): strong inhibition of cell spreading

Compound: trypsin
Amount necessary to degrade 50% of substrate in 30 min ([2]; 37° C., pH 7.4): 0.3 µg

Compound: CC(C)C[C@H](NC(=O)[C@@H](O)[C@H](N)Cc1ccccc1)C(=O)O [bestatine]
Inhibition on CNS (%) [4]: 0%
Effect on C6 cell spreading on CNS myelin, in words [4]: did not impair C6 cell spreading
Effect on cbz-FAF[^125I]Y-NH2 degradation by C6 plasma membranes, in words [1]: did not affect overall activity
Effect on formation of Y-NH2 from cbz-FAF[^125I]Y-NH2, in words [1]: specifically inhibited the formation of Y-NH2

Compound: C[C@H](CS)C(=O)N1CCC[C@H]1C(=O)O [Captopril]
Effect on cbz-FAF[^125I]Y-NH2 degradation by C6 plasma membranes, in words [1]: had no effect

Compound: collagenase
Amount necessary to degrade 50% of substrate in 30 min ([2]; 37° C., pH 7.4): 3 µg and 3.0 µg

Compound: C[C@H](NC(=O)OCc1ccccc1)C(=O)N[C@@H](Cc1ccccc1)C(N)=O [cbz-AF-NH2, carbobenzoxy-alanine-phenylalanine-amide]
pIC50 [3, 5]: 3.22

Reference: US6960559B1, “Neurite growth regulatory factors” (University of Zurich, priority 1988, dated 2005)
